Test results from patent US20130184222A1, “[…] ACTIVE COMPOSITIONS AND THEIR METHODS OF USE” (AGIOS PHARMACEUTICALS, INC, priority 2010, published 2013).

molecular target: IDH1 R132H (Homo sapiens, UniProt O75874, R132H); assay: In vitro assay for IDH1 R132H inhibitors (NADPH/aKG, resazurin detection); format: biochemical; settings: Table 4A; 0.2 μg/ml IDH1 R132H, 50 minutes at room temperature; read-out: IC50 (uM), IDH1 R132H Inhibition
Method: Assays were conducted in a volume of 76 μl assay buffer (150 mM NaCl, 10 mM MgCl2, 20 mM Tris pH 7.5, 0.03% bovine serum albumin) as follows in a standard 384-well plate: To 25 ul of substrate mix (8 uM NADPH, 2 mM aKG), 1 μl of test compound was added in DMSO. The plate was centrifuged briefly, and then 25 μl of enzyme mix was added (0.2 μg/ml IDH1 R132H) followed by a brief centrifugation and shake at 100 RPM. The reaction was incubated for 50 minutes at room temperature, then 25 μl of detection mix (30 μM resazurin, […]) was added and the mixture further incubated for 5 minutes at room temperature. The conversion of resazurin to resorufin was detected by fluorescent spectroscopy at Ex544 Em590 c/o 590.
The compounds of Formula I set forth in Table 1 and the compounds set forth in Table 2 were tested in this assay and the results set forth below in Table 4A and 4B.

IDH1 R132H, sequence (O75874 whole entry R132H): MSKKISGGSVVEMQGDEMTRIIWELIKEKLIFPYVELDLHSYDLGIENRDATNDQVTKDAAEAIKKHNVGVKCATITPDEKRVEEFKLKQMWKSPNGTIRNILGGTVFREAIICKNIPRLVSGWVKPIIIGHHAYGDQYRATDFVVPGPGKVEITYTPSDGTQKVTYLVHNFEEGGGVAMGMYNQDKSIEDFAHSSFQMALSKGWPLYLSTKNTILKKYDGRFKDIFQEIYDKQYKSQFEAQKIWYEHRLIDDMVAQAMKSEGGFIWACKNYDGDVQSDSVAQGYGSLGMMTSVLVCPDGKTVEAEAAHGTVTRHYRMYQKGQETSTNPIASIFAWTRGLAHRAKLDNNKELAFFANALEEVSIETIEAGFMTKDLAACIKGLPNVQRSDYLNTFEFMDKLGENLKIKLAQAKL

| IC50 [µM] | SMILES |
| --- | --- |
| ≤ 0.1 | Cc1ccccc1[C@@H](C(=O)NC1CCCCC1)N(C(=O)Cc1cccs1)c1cccc(F)c1 (single isomer, unassigned) [Compound 54] |
| 0.1 to 1 | COc1cccc(N(C(=O)Cc2cccs2)C(C(=O)NC2CCCC2)c2ccccc2)c1 (stereo not drawn) [Compound 1] |
| 0.1 to 1 | O=C(NC1CCCC1)C(c1ccccc1Cl)N(C(=O)Cc1cccs1)c1ccccc1F (stereo not drawn) [Compound 2] |
| 0.1 to 1 | COc1cccc(N(C(=O)Cc2cccs2)C(C(=O)NC2CCCC2)c2ccccc2Cl)c1 (stereo not drawn) [Compound 3] |
| 0.1 to 1 | Cc1ccccc1C(C(=O)NC1CCCC1)N(C(=O)Cn1nnc2ccccc21)c1ccccc1F (stereo not drawn) [Compound 5] |
| 1 to 10 | Cc1ccc(N(C(=O)c2sc(C)nc2C)C(C(=O)NC2CCCC2)c2ccccc2)cc1 (stereo not drawn) [Compound 9] |
| 0.1 to 1 | O=C(NC1CCCCC1)C(c1ccccc1F)N(C(=O)CNS(=O)(=O)c1ccccc1)c1ccccc1F (stereo not drawn) [Compound 10] |
| 10 to 100 | CC(C(=O)NCc1ccccc1)(c1cccc(F)c1)N(C(=O)Cc1cccs1)c1ccccc1 (stereo not drawn) [Compound 12] |
| ≤ 0.1 | Cc1ccccc1C(C(=O)NC1CCCCC1)N(C(=O)Cc1cccs1)c1cccc(F)c1 (stereo not drawn) [Compound 15] |
| ≥ 100 | O=C(NC1CCCC1)C(c1cccc([N+](=O)[O-])c1)N(C(=O)Cc1cccs1)c1cccc(F)c1 (stereo not drawn) [Compound 20] |
| ≥ 100 | CC(C)(C(=O)NC1CCCC1)N(C(=O)Cc1cccs1)c1cccc(F)c1 [Compound 21] |
| 10 to 100 | O=C(Cc1cccs1)N(c1cccc(F)c1)C1(C(=O)NC2CCCC2)CCCC1 [Compound 23] |
| 1 to 10 | O=C(Cc1cccs1)N(c1cccc(F)c1)C1(C(=O)NC2CCCC2)CCCCC1 [Compound 24] |
| 0.1 to 1 | COc1ccccc1C(C(=O)NC1CCCC1)N(C(=O)Cc1cccs1)c1cccc(F)c1 (stereo not drawn) [Compound 26] |
| ≥ 100 | O=C(NC1CCCC1)C(c1ccc(C(F)(F)F)cc1)N(C(=O)Cc1cccs1)c1cccc(F)c1 (stereo not drawn) [Compound 27] |
| 0.1 to 1 | Cc1ccccc1C(C(=O)NC1CCCC1)N(C(=O)CNS(=O)(=O)c1ccccc1)c1cccc(F)c1 (stereo not drawn) [Compound 28] |
| 0.1 to 1 | Cc1ccccc1C(C(=O)NC1CCCCC1)N(C(=O)CNS(=O)(=O)c1ccccc1)c1cccc(F)c1 (stereo not drawn) [Compound 29] |
| 0.1 to 1 | O=C(NC1CCCCC1)C(c1ccccc1)N(C(=O)Cc1cccs1)c1ccccc1F (stereo not drawn) [Compound 36] |

| IC50 [µM] | SMILES |
| --- | --- |
| 10 to 100 | O=C(NC1CCCCC1)C(c1ccccc1F)N(Cc1cccs1)C(=O)c1ccccn1 (stereo not drawn) [Compound 37] |
| ≥ 100 | Cc1ccccc1C(C(=O)NC1CCCCC1)N(C)C(=O)Cc1cccs1 (stereo not drawn) [Compound 40] |
| 10 to 100 | Cc1ccccc1C(C(=O)NC1CCCCC1)N(C(=O)Cc1cccs1)C(C)C (stereo not drawn) [Compound 41] |
| 0.1 to 1 | Cc1ccccc1C(C(=O)NC1CCCCC1)N(C(=O)Cc1cccs1)c1ccccc1 (stereo not drawn) [Compound 42] |
| 0.1 to 1 | O=C(NC1CCCC1)C(c1ccccc1)N(C(=O)Cc1cccs1)c1cccc(F)c1 (stereo not drawn) [Compound 45] |
| 0.1 to 1 | Cc1ccccc1C(C(=O)NC1CCCC1)N(C(=O)Cc1cccs1)c1ccccc1F (stereo not drawn) [Compound 46] |
| 0.1 to 1 | Cc1ccsc1C(C(=O)NC1CCCCC1)N(C(=O)Cc1cccs1)c1cccc(F)c1 (stereo not drawn) [Compound 51] |
| 1 to 10 | O=C(NC1CCCCC1)C(c1ccccc1Cl)N(C(=O)c1ccccn1)c1ccccc1F (stereo not drawn) [Compound 57] |
| 1 to 10 | Cc1ccccc1C(C(=O)NC1CCCCC1)N(C(=O)c1ccccn1)c1ccccc1F (stereo not drawn) [Compound 59] |
| 0.1 to 1 | O=C(NC1CCCCC1)C(c1ccccc1F)N(C(=O)c1ccccn1)c1ccccc1F (stereo not drawn) [Compound 60] |
| 1 to 10 | O=C(NC1CCCCC1)C(C1CCCC1)N(C(=O)Cc1cccs1)c1cccc(F)c1 (stereo not drawn) [Compound 61] |
| 0.1 to 1 | O=C(NC1CCCCC1)C(c1ccccc1[N+](=O)[O-])N(C(=O)Cc1cccs1)c1cccc(F)c1 (stereo not drawn) [Compound 62] |
| 0.1 to 1 | CCc1ccccc1C(C(=O)NC1CCCCC1)N(C(=O)Cc1cccs1)c1cccc(F)c1 (stereo not drawn) [Compound 65] |
| 0.1 to 1 | O=C(NC1CCCCC1)C(c1ccccc1O)N(C(=O)Cc1cccs1)c1cccc(F)c1 (stereo not drawn) [Compound 67] |
| 1 to 10 | Cc1ccccc1C(C(=O)NC1CCCCC1)N(C(=O)Cc1cccs1)C1CCCC1 (stereo not drawn) [Compound 70] |
| 1 to 10 | O=C(Cc1cccs1)N(c1cccc(F)c1)C1(C(=O)NC2CCCC2)CCCCCC1 [Compound 74] |
| 1 to 10 | Cc1ccccc1C(C(=O)NC1CCCC1)N(C(=O)CCl)c1ccccc1F (stereo not drawn) [Compound 75] |

Continued, molecule first:

| SMILES | IC50 [µM] |
| --- | --- |
| O=C(NC1CCCCC1)C(c1ccccc1Cl)N(C(=O)c1ccccn1)c1ccccc1 (stereo not drawn) [Compound 4] | 0.1 to 1 |
| O=C(NC1CCCC1)C(c1ccccc1F)N(C(=O)Cc1cccs1)c1ccc2c(c1)OCO2 (stereo not drawn) [Compound 6] | 0.1 to 1 |
| Cc1ccc(N(C(=O)c2ccccn2)C(C(=O)NC2CCCCC2)c2ccccc2)cc1F (stereo not drawn) [Compound 7] | 1 to 10 |
| Cc1ccccc1C(C(=O)NC1CCCC1)N(C(=O)Cc1cccs1)c1cccc(F)c1 (stereo not drawn) [Compound 8] | ≤ 0.1 |
| CC(C)(C)NC(=O)C(c1ccccc1)N(C(=O)Cc1cccs1)c1ccccc1 (stereo not drawn) [Compound 11] | 1 to 10 |
| Cc1ccccc1N(C(=O)Cc1cccs1)C(C(=O)NC1CCCCC1)c1cccc(F)c1 (stereo not drawn) [Compound 13] | 0.1 to 1 |
| Cc1ccccc1N(C(=O)Cc1cccs1)C(C(=O)NC(C)(C)C)c1cccc(F)c1 (stereo not drawn) [Compound 14] | 10 to 100 |
| CC(C)C(C(=O)NC1CCCC1)N(C(=O)Cc1cccs1)c1cccc(F)c1 (stereo not drawn) [Compound 16] | ≥ 100 |
| O=C(NC1CCCC1)C(c1ccccc1)N(C(=O)Cc1cccs1)c1ccccc1 (stereo not drawn) [Compound 17] | 0.1 to 1 |
| CCC(C(=O)NC1CCCC1)N(C(=O)Cc1cccs1)c1cccc(F)c1 (stereo not drawn) [Compound 18] | ≥ 100 |
| COc1ccc(C(C(=O)NC2CCCC2)N(C(=O)Cc2cccs2)c2cccc(F)c2)cc1OC (stereo not drawn) [Compound 19] | ≥ 100 |
| O=C(Cc1cccs1)N(c1cccc(F)c1)C1(C(=O)NC2CCCC2)CCC1 [Compound 22] | ≥ 100 |
| N#Cc1ccc(C(C(=O)NC2CCCC2)N(C(=O)Cc2cccs2)c2cccc(F)c2)cc1 (stereo not drawn) [Compound 25] | ≥ 100 |
| O=C(NC1CCCCC1)C(c1ccccc1)N(C(=O)Cc1cccs1)c1cccc(F)c1 (stereo not drawn) [Compound 30] | 0.1 to 1 |
| O=C(NC1CCCCC1)C(c1ccccc1Cl)N(C(=O)Cc1cccs1)c1cccc(F)c1 (stereo not drawn) [Compound 31] | ≤ 0.1 |
| Cc1ccccc1C(C(=O)NC1CCCCC1)N(C(=O)c1ccccn1)c1cccc(F)c1 (stereo not drawn) [Compound 32] | 1 to 10 |
| O=C(NC1CCCCC1)C(c1ccccc1F)N(C(=O)c1ccccn1)c1cccc(F)c1 (stereo not drawn) [Compound 33] | 0.1 to 1 |
| O=C(NC1CCCCC1)C(c1ccccc1F)N(C(=O)Cc1cccs1)c1cccc(F)c1 (stereo not drawn) [Compound 34] | ≤ 0.1 |
| O=C(NC1CCCCC1)C(c1ccccc1Cl)N(C(=O)Cc1cccs1)c1ccccc1F (stereo not drawn) [Compound 35] | 0.1 to 1 |
| O=C(NC1CCCCC1)C(c1ccccc1F)N(Cc1cccs1)C(=O)Cc1cccs1 (stereo not drawn) [Compound 38] | 1 to 10 |

| SMILES | IC50 [µM] |
| --- | --- |
| Cc1ccccc1C(C(=O)NC1CCCCC1)N(C(=O)Cc1cccs1)c1ccccc1F (stereo not drawn) [Compound 39] | 0.1 to 1 |
| O=C(NC1CCCC1)C(c1ccccc1F)N(C(=O)Cc1cccs1)c1cccc(F)c1 (stereo not drawn) [Compound 43] | 0.1 to 1 |
| O=C(NC1CCCC1)C(c1ccccc1Cl)N(C(=O)Cc1cccs1)c1cccc(F)c1 (stereo not drawn) [Compound 44] | ≤ 0.1 |
| O=C(NC1CCCC1)C(c1ccccc1F)N(C(=O)Cc1cccs1)c1ccccc1F (stereo not drawn) [Compound 47] | 0.1 to 1 |
| O=C(NC1CCCC1)C(c1ccccc1)N(C(=O)Cc1cccs1)c1ccccc1F (stereo not drawn) [Compound 48] | 0.1 to 1 |
| COc1cccc(C(C(=O)NC2CCCCC2)N(C(=O)Cc2cccs2)c2cccc(F)c2)c1 (stereo not drawn) [Compound 49] | 0.1 to 1 |
| O=C(NC1CCCCC1)C(c1ccc(F)cc1)N(C(=O)Cc1cccs1)c1cccc(F)c1 (stereo not drawn) [Compound 50] | 0.1 to 1 |
| CCOc1cc(C(C(=O)NC2CCCCC2)N(C(=O)Cc2cccs2)c2cccc(F)c2)ccc1OC (stereo not drawn) [Compound 52] | ≥ 100 |
| Cc1ccccc1[C@H](C(=O)NC1CCCCC1)N(C(=O)Cc1cccs1)c1cccc(F)c1 [Compound 53] | 1 to 10 |
| O=C(NC1CCCCC1)C(c1ccccc1)N(C(=O)c1ccccn1)c1cccc(F)c1 (stereo not drawn) [Compound 55] | 1 to 10 |
| O=C(NC1CCCCC1)C(c1ccccc1Cl)N(C(=O)c1ccccn1)c1cccc(F)c1 (stereo not drawn) [Compound 56] | 0.1 to 1 |
| O=C(NC1CCCCC1)C(c1ccccc1)N(C(=O)c1ccccn1)c1ccccc1F (stereo not drawn) [Compound 58] | 1 to 10 |
| O=C(NC1CCCCC1)C(C1CCCCC1)N(C(=O)Cc1cccs1)c1cccc(F)c1 (stereo not drawn) [Compound 63] | 1 to 10 |
| CCOc1ccccc1C(C(=O)NC1CCCCC1)N(C(=O)Cc1cccs1)c1cccc(F)c1 (stereo not drawn) [Compound 64] | 1 to 10 |
| O=C(NC1CCCCC1)C(c1ccc(-c2ccccc2)cc1)N(C(=O)Cc1cccs1)c1cccc(F)c1 (stereo not drawn) [Compound 66] | ≥ 100 |
| O=C(NC1CCCCC1)C(c1ccc(Br)cc1)N(C(=O)Cc1cccs1)c1cccc(F)c1 (stereo not drawn) [Compound 68] | ≥ 100 |
| Cc1ccccc1C(C(=O)NC1CCCCC1)N(C(=O)Cc1cccs1)C(C)(C)C (stereo not drawn) [Compound 69] | ≥ 100 |
| Cc1ccccc1C(C(=O)NC1CCCCC1)N(Cc1ccccc1)C(=O)Cc1cccs1 (stereo not drawn) [Compound 71] | 1 to 10 |
| Cc1ccccc1C(C(=O)NC1CCCC1)N(C(=O)c1ccccn1)c1cccc(F)c1 (stereo not drawn) [Compound 72] | 1 to 10 |
| Cc1ccccc1C(C(=O)NC1CCCCC1)N(C(=O)Cc1cccs1)c1ccc(Br)c(Cl)c1 (stereo not drawn) [Compound 73] | 0.1 to 1 |
